Here are results for 80 molecules from a melting point compilation (Tetko et al.).

For `COc1ccc(C(=O)O)cc1OC1CCCC1`, the melting point – broadly, the temperature, or range, at which the solid turns liquid – lay in the range of 164 to 166 °C.

`CC(C)=C1C2CCC1c1ccccc12`: the melting point was 90 °C.

The molecule `CNS(=O)(=O)Cc1ccc2[nH]cc(CCN(C)C)c2c1` yielded a melting point of 169 °C. As for `Fc1ccccc1-c1ccccc1F`, the figure is 112 to 114 °C. In the case of `C1CN2CCC1CC2` it was 158 °C; in that of `Cn1ccnc1C=O`, 35 to 39 °C. In the case of `CCOC(=O)c1c(SC)nn(C(N)=O)c1N` it was 155 °C; in that of `N#CCCC1CCCCCCCCCCC1=O` (stereo not given), 60 to 61 °C; in that of `Fc1ccc(-c2ccc(Br)cc2)cc1`, 95 to 96 °C.

Regarding `CC1(C)c2ccccc2Oc2ccccc21`, the melting point was determined as 41.5 °C.

Molecule `O=C(O)c1ccc2cc[nH]c2c1` showed a melting point of 248 to 254 °C. In the case of `CCOP(=S)(OCC)SCCSCC`, the melting point was -25 °C. In the case of `Cc1nn(C)c(C)c1N=C=O` it was 36 to 40 °C; in that of `N[C@H]1CC[C@H](N)CC1`, 68 to 71 °C. In the case of `O=C(O)C1OC1C(=O)O` (stereo not given) it was 148 to 149 °C; in that of `CC(C)(C)OC(=O)N1CCC(Oc2ccc([N+](=O)[O-])cc2)CC1`, 99 to 101 °C. As for `OCc1ccc(-n2cccc2)cc1`, the figure is 102 to 105 °C; as for `CC12CCC(C(O)=C/C1=N\Nc1ccccc1)C2(C)C` (stereo not given), 188 °C; as for `CC12CCC(C(=CC=C3C(=O)C4(C)CCC3C4(C)C)C1=O)C2(C)C`, 283 to 285 °C. Consider `CCc1cccc(Cc2ccccc2)c1`, for which the melting point is -9 °C. The molecule `O=C1C(c2ccccc2)=[N+]([O-])c2cc([N+](=O)[O-])c(/C=C/c3ccccc3)cc21` registered a melting point of 233 °C. In the case of `Nc1cscc1S(=O)(=O)c1ccccc1` it was 125 to 126 °C. In the case of `O=C(C1=NOC2C(=O)N(c3ccccc3)C(=O)C12)c1cccs1` (stereo not given) it was 174 °C; in that of `O/N=C(/C=Cc1ccccc1)c1ccccc1`, 115 to 116 °C. `ON=C1CCCc2ccccc21` had a melting point of 103 to 105 °C. In the case of `NC(=S)Nc1ccc2c(c1)OCO2` it was 198 to 200 °C; in that of `COC(=O)CCC(C)C1CCC2C3C(O)C(O)C4CC(O)CCC4(C)C3CC(O)C12C` (stereo not given), 162 °C; in that of `COc1ccc(-c2c(C(=O)O)sc(SC)c2C#N)cc1`, 209 to 214 °C.

For the molecule `COC(=O)c1c(OC)c(OC)c(C(=O)OC)c(C(=O)OC)c1OC`, the melting point was in the range of 52 to 55 °C.

The molecule `CC(=O)Oc1cc(C)c(OC(C)=O)c2ccccc12` came in with a melting point of 113 °C. In the case of `COc1ccc(-c2cc3nc(C)cc(C(F)(F)F)n3n2)cc1` it was 167 °C. As for `NC(=O)C#CC(N)=O`, the figure is 238 °C; as for `O=C(O)C1Cc2ccccc21` (stereo not given), 74 °C.

For `O=C(c1cccs1)c1noc(-c2ccc([N+](=O)[O-])cc2)c1S(=O)(=O)c1ccccc1`, the melting point amounted to 139 °C. Consider `c1ccc2c(c1)c(Cc1cn(CN3CCCCC3)c3ccccc13)cn2CN1CCCCC1`, for which the melting point came out at 138 °C. In the case of `O=C(CCCN1CCC(O)(c2ccc(Br)cc2)CC1)c1ccc(F)cc1` it was 155 °C. As for `CCCOC(=O)C1=C(C)NC(=S)NC1c1ccccc1` (stereo not given), the figure is 169 °C; as for `CSc1nc2cc([N+](=O)[O-])ccc2[nH]1`, 211 to 212 °C. In turn, `O=Cc1cccc(-c2ccsc2)c1` gave a melting point of 48 to 49 °C. For the molecule `COc1ccc(-n2cncn2)cc1`, the melting point turned out to be 97 °C. As for `C[C@H](C(=O)O)c1ccccc1`, the figure is 29 to 32 °C; as for `CCSC(SCC)C(O)C(O)C(O)C(O)CO` (stereo not given), 140 to 142 °C; as for `O=Cc1c[nH]nc1-c1ccc(F)cc1`, 160 to 164 °C. As for `O=Cc1ccsc1Sc1ccc(Cl)cc1`, the figure is 57 to 60 °C.

`COC(=O)C1=C(C)NC(=O)C1CC(=O)O` (stereo not given) came in with a melting point of 160 to 162 °C. Molecule `c1ccc(C2CCc3ccccc3O2)cc1` (stereo not given) yielded a melting point of 46.3 °C. In the case of `Cc1c(Br)sc2ccc(Cl)cc12` it was 106 °C; in that of `O=C(O)CC1CCCC1`, 12 °C. Turning to `CC(O)CN(CC(C)O)CC(C)O` (stereo not given), the melting point fell in the range of 48 to 52 °C. In the case of `Cc1c(C)c(C)c(C(=O)c2ccccc2)c(C)c1C` it was 138 °C.

With `O=C(c1cccc(F)c1)c1cccc(F)c1`, the melting point turned out to be 59 °C. For the molecule `CC(=O)Nc1ccc(C(C)=O)cc1Br`, the melting point came to 140 °C.

Molecule `COc1ccc(C2Cc3ccccc3C(C)(O)O2)cc1` (stereo not given) yielded a melting point of 102 °C.

In turn, `O=C(O)Cc1n[nH]c(=O)c2ccccc12` registered a melting point of 220 to 223 °C. As for `COc1ccc2cc1Oc1ccc(cc1)CC1c3cc(c(OC)cc3CCN1C)Oc1c(OC)c(OC)cc3c1C(C2)N(C)CC3` (stereo not given), the figure is 218 °C. On to `CC(=O)OCC(=O)C1(O)C(C)CC2C3CCC4=CC(=O)C=CC4(C)C3(F)C(O)CC21C` (stereo not given), for which the melting point was determined as 263 °C. As for `Clc1cc(Cl)c2oc3cc(Cl)c(Cl)cc3c2c1`, the melting point was 202 °C.

In turn, `O=c1[nH]c2ccccc2n1-c1ccccc1` returned a melting point of 207 °C. As for `OC1CCCCCCC1`, the figure is 25.1 °C; as for `O=C(O)c1ccc2ncccc2c1`, 293 to 294 °C; as for `CC(=O)OC1CCC2C3CCC4CC(C(C)=O)CCC4(C)C3CCC12C` (stereo not given), 140 °C. In the case of `CCCCCCCCCCOc1ccc(/N=N/c2ccc(CCCC)cc2)cc1` it was 55.5 to 74 °C. Molecule `CC(=O)Nc1sc2c(c1C#N)CCCC2` displayed a melting point of 215 to 217 °C. In the case of `C#CCC` it was -126 °C; in that of `CN1CCN2c3ncccc3Cc3ccccc3C2C1` (stereo not given), 115 °C; in that of `ClC=CBr`, -86.7 °C. As for `Cc1nc(NS(=O)(=O)c2ccc(N)cc2)oc1C`, the figure is 193 °C. `O=C1OC(=O)C2=C1CC1=C(CC=CC1)C2` registered a melting point of 204 °C. As for `CC(=O)/C(=C/Nc1ccccc1)Cc1ccccc1`, the melting point stood at 132 °C. `Cc1[nH]c2cc(C(F)(F)F)ccc2c1C(=O)N1CCCCC1` registered a melting point of 174 to 175 °C. In turn, `COc1ccc2c3c1OC1CC(O)C=CC31CCN(C)C2` (stereo not given) registered a melting point of 126 °C. As for `CC1(C)OC(=O)CC1CC(=O)O` (stereo not given), the figure is 90 °C; as for `CC1(C)CC(=O)C(Cl)C(=O)C1`, 163 °C.

As to `c1ccc(OCc2ccc(CCN3CCOCC3)cc2)cc1`, the melting point turned out to be 86 °C. In the case of `NS(=O)(=O)c1cc(Cl)sc1Cl` it was 131 to 133 °C; in that of `CC(C)Oc1cccc(NC(=O)c2ccccc2C(F)(F)F)c1`, 105 °C; in that of `Nc1ccc(C(F)(F)F)cc1I`, 51 °C. In the case of `CC12CCC(/C(=C/Nc3ccc(Cl)cc3)C1=O)C2(C)C` (stereo not given) it was 167 to 169 °C. Consider `O=C(O)c1cc2ccccc2c2ccccc12`, for which the melting point was 253 °C. As for `O=C(O)C(O)c1ccc(Cl)cc1` (stereo not given), the figure is 120 °C.
